Experimental data: patent publication US6914045B2, “Glycopeptide antibiotics” (Wyeth Holdings Corporation, priority 2001, dated 2005)
In brackets after ≈: the same amount, converted by molar mass.

What was measured:
Experiment in all cases: in vitro antibacterial evaluation, MIC by broth dilution
Format in all cases: cell-based
Escherichia coli = conditions: 18 hours at 35° C.
Enterococcus sp. = conditions: broth dilution, 18 hours at 35° C.
Method in brief: (§1)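 Test organisms, which included recent clinical isolates resistant to methicillin, penicillin and/or vancomycin, were inoculated at 5×10^5 CFU/mL into Muller-Hinton II […] containing antibiotic at 64-0.06 μg/mL. Minimum inhibitory concentrations were then read as the lowest level inhibiting growth.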

Staphylococcus sp. = conditions: broth dilution, 18 hours at 35° C.
Method in brief: as §1

Streptococcus sp. = conditions: broth dilution, 18 hours at 35° C.
Method in brief: as §1

MIC Escherichia coli (ATCC 25922) (Escherichia coli): >64 µg/mL
MIC Escherichia coli (GC 4559) (Escherichia coli): >64 µg/mL
MIC Escherichia coli (GC 4560) (Escherichia coli): 2 µg/mL (≈ 1.42 µM)
MIC Enterococcus avium (GC 4558) (Enterococcus sp.): 64 µg/mL (≈ 45.4 µM)
MIC Enterococcus faecalis (ATCC 29212) (Enterococcus sp.): 64 µg/mL (≈ 45.4 µM)
MIC Enterococcus faecalis (GC 2242) (Enterococcus sp.): 32 µg/mL (≈ 22.7 µM)
MIC Enterococcus faecalis (GC 4552) (Enterococcus sp.): 64 µg/mL (≈ 45.4 µM)
MIC Enterococcus faecalis (GC 4553) (Enterococcus sp.): 64 µg/mL (≈ 45.4 µM)
MIC Enterococcus faecalis (GC 4554) (Enterococcus sp.): 64 µg/mL (≈ 45.4 µM)
MIC Enterococcus faecium (GC 2243) (Enterococcus sp.): 64 µg/mL (≈ 45.4 µM)
MIC Enterococcus faecium (GC 4556) (Enterococcus sp.): 64 µg/mL (≈ 45.4 µM)
MIC Enterococcus faecium (GC 4557) (Enterococcus sp.): 4 µg/mL (≈ 2.84 µM)
MIC Enterococcus faecalis (ATCC 29212) (Enterococcus sp.; strain ATCC 29212): 64 µg/mL (≈ 45.4 µM)
MIC Enterococcus faecalis (GC 2242) (Enterococcus sp.; strain GC 2242): 32 µg/mL (≈ 22.7 µM)
MIC Enterococcus faecium (GC 2243) (Enterococcus sp.; strain GC 2243): 64 µg/mL (≈ 45.4 µM)
MIC Enterococcus faecalis (GC 4552) (Enterococcus sp.; strain GC 4552): 64 µg/mL (≈ 45.4 µM)
MIC Enterococcus faecalis (GC 4553) (Enterococcus sp.; strain GC 4553): 64 µg/mL (≈ 45.4 µM)
MIC Enterococcus faecalis (GC 4554) (Enterococcus sp.; strain GC 4554): 64 µg/mL (≈ 45.4 µM)
MIC Enterococcus faecium (GC 4556) (Enterococcus sp.; strain GC 4556): 64 µg/mL (≈ 45.4 µM)
MIC Enterococcus faecium (GC 4557) (Enterococcus sp.; strain GC 4557): 4 µg/mL (≈ 2.84 µM)
MIC Enterococcus avium (GC 4558) (Enterococcus sp.; strain GC 4558): 64 µg/mL (≈ 45.4 µM)
MIC Coagulase Negative Staphylococcus (GC 4547) (Staphylococcus sp.): 8 µg/mL (≈ 5.68 µM)
MIC Coagulase Negative Staphylococcus (GC 4548) (Staphylococcus sp.): 8 µg/mL (≈ 5.68 µM)
MIC Coagulase Negative Staphylococcus (GC 4549) (Staphylococcus sp.): 4 µg/mL (≈ 2.84 µM)
MIC Coagulase Negative Staphylococcus (GC 4551) (Staphylococcus sp.): 16 µg/mL (≈ 11.4 µM)
MIC Coagulase Negative Staphylococcus (ID-3941) (Staphylococcus sp.): 4 µg/mL (≈ 2.84 µM)
MIC Staphylococcus aureus (ATCC 29213) (Staphylococcus sp.): 16 µg/mL (≈ 11.4 µM)
MIC Staphylococcus aureus (GC 1131) (Staphylococcus sp.): 8 µg/mL (≈ 5.68 µM)
MIC Staphylococcus aureus (GC 4541) (Staphylococcus sp.): 8 µg/mL (≈ 5.68 µM)
MIC Staphylococcus aureus (GC 4542) (Staphylococcus sp.): 8 µg/mL (≈ 5.68 µM)
MIC Staphylococcus aureus (GC 4544) (Staphylococcus sp.): 16 µg/mL (≈ 11.4 µM)
MIC Staphylococcus aureus (GC 4545) (Staphylococcus sp.): 8 µg/mL (≈ 5.68 µM)
MIC Staphylococcus aureus-SMITH (GC 4543) (Staphylococcus sp.): 8 µg/mL (≈ 5.68 µM)
MIC Staphylococcus aureus (ATCC 29213) (Staphylococcus sp.; strain ATCC 29213): 16 µg/mL (≈ 11.4 µM)
MIC Staphylococcus aureus (GC 1131) (Staphylococcus sp.; strain GC 1131): 8 µg/mL (≈ 5.68 µM)
MIC Staphylococcus aureus (GC 4541) (Staphylococcus sp.; strain GC 4541): 8 µg/mL (≈ 5.68 µM)
MIC Staphylococcus aureus (GC 4542) (Staphylococcus sp.; strain GC 4542): 8 µg/mL (≈ 5.68 µM)
MIC Staphylococcus aureus-SMITH (GC 4543) (Staphylococcus sp.; strain GC 4543): 8 µg/mL (≈ 5.68 µM)
MIC Staphylococcus aureus (GC 4544) (Staphylococcus sp.; strain GC 4544): 16 µg/mL (≈ 11.4 µM)
MIC Staphylococcus aureus (GC 4545) (Staphylococcus sp.; strain GC 4545): 8 µg/mL (≈ 5.68 µM)
MIC Coagulase Negative Staphylococcus (GC 4547) (Staphylococcus sp.; strain GC 4547): 8 µg/mL (≈ 5.68 µM)
MIC Coagulase Negative Staphylococcus (GC 4548) (Staphylococcus sp.; strain GC 4548): 8 µg/mL (≈ 5.68 µM)
MIC Coagulase Negative Staphylococcus (GC 4549) (Staphylococcus sp.; strain GC 4549): 4 µg/mL (≈ 2.84 µM)
MIC Coagulase Negative Staphylococcus (GC 4551) (Staphylococcus sp.; strain GC 4551): 16 µg/mL (≈ 11.4 µM)
MIC Coagulase Negative Staphylococcus (ID-3941) (Staphylococcus sp.; strain ID-3941): 4 µg/mL (≈ 2.84 µM)
MIC Streptococcus agalactiae (GC 4564) (Streptococcus sp.): 4 µg/mL (≈ 2.84 µM)
MIC Streptococcus pneumoniae (GC 4565) (Streptococcus sp.): 1 µg/mL (≈ 0.71 µM)
MIC Streptococcus pyogenes (ID-3187) (Streptococcus sp.): 2 µg/mL (≈ 1.42 µM)
MIC Streptococcus agalactiae (GC 4564) (Streptococcus sp.; strain GC 4564): 4 µg/mL (≈ 2.84 µM)
MIC Streptococcus pneumoniae (GC 4565) (Streptococcus sp.; strain GC 4565): 1 µg/mL (≈ 0.71 µM)
MIC Streptococcus pyogenes (ID-3187) (Streptococcus sp.; strain ID-3187): 2 µg/mL (≈ 1.42 µM)
Structure (SMILES): CCCCCNC(=O)OCC1OC(OC2C(CO)OC(Oc3ccc(CC4NC(=O)C(C(C)c5ccccc5)NC(=O)CNC(=O)C(CO)NC(=O)C(C(O)C5CNC(=N)N5C5OC(CO)C(O)C(O)C5O)NC(=O)C(C(O)C5CNC(=N)N5)NC4=O)cc3)C(O)C2O)C(O)C(O)C1O (centres unmarked) [Example 251b]
MIC Staphylococcus haemolyticus (GC 4546) (Staphylococcus sp.): 8 µg/mL (≈ 5.68 µM)
MIC Staphylococcus haemolyticus (GC 4546) (Staphylococcus sp.; strain GC 4546): 8 µg/mL (≈ 5.68 µM)
